Source: PubChem BioAssay AID1996
Converted amounts (≈) assume the structure as drawn.

conditions: buffer; pH 7.4; 200.0 µM

With `Cc1cc(C(=O)NCC(=O)Nc2ccc(F)c(F)c2)c(C)o1` as the compound, how does the solubility kinetic read?
The solubility kinetic was 11.3 µg/mL (≈ 36.7 µM).

With `COC(=O)CCN(C(=O)c1ccc(Cl)c([N+](=O)[O-])c1)c1ccccn1` as the compound, how does the solubility kinetic read?
Its solubility kinetic is over 54.6 µg/mL.

Which solubility kinetic does the source give for `O=C(CSc1nncs1)NC1CCCCCCC1` here?
The solubility kinetic was over 42.8 µg/mL.

Which solubility kinetic does the source give for `Cc1nc2ccccc2c(=O)n1-c1cc([N+](=O)[O-])cc([N+](=O)[O-])c1` here?
Its solubility kinetic is 17.1 µg/mL (≈ 52.4 µM).

With `O=C(O)CC(c1ccccc1)N1C(=O)c2ccccc2C1=O` (stereo not drawn) as the compound, how does the solubility kinetic read?
Its solubility kinetic is 43.9 µg/mL (≈ 149 µM).

Which solubility kinetic does the source give for `CCN(Cc1cc(=O)[nH]c2ccccc12)C(=O)c1ccc(C)cc1` here?
Its solubility kinetic is 41.3 µg/mL (≈ 129 µM).

For `Clc1cccc(-c2csc(Nc3cccnc3)n2)c1`, which solubility kinetic is on record?
The solubility kinetic was under 0.2 µg/mL.

With `CCOC(=O)NN1C(=O)c2ccccc2NC1c1cccnc1` (stereo not drawn) as the compound, how does the solubility kinetic read?
Its solubility kinetic is over 46.8 µg/mL.

With `COCc1ccc(CN2CCC(CO)(CC3CCCCO3)CC2)o1` (stereo not drawn) as the compound, how does the solubility kinetic read?
Its solubility kinetic is over 50.6 µg/mL.

For `CCCNC(=O)COc1ncnc2sccc12`, which solubility kinetic is on record?
The solubility kinetic was over 37.7 µg/mL.

Which solubility kinetic does the source give for `CC(C)c1ccc(NC(=O)C2CC(=O)N(C3CCCC3)C2)cc1` (stereo not drawn) here?
Its solubility kinetic is 36.1 µg/mL (≈ 115 µM).

Which solubility kinetic does the source give for `CC(=O)Nc1ccc(SC(C)C(=O)NC2CCCC2)cc1` (stereo not drawn) here?
The solubility kinetic was over 46 µg/mL.

With `C=CCn1c(C)nnc1SCC(=O)NC1CC1` as the compound, how does the solubility kinetic read?
The solubility kinetic was over 37.9 µg/mL.

For `Cc1ccc(OC(C)C(=O)Nc2ccncc2)cc1` (stereo not drawn), which solubility kinetic is on record?
The solubility kinetic was 31.7 µg/mL (≈ 124 µM).

Which solubility kinetic does the source give for `O=C(N/N=C/c1ccccc1Cl)C1CC1` here?
The solubility kinetic was over 33.4 µg/mL.

Which solubility kinetic does the source give for `O=C(c1ccc(COCC(F)(F)F)o1)N1CCCC1` here?
The solubility kinetic was 40.3 µg/mL (≈ 145 µM).

Which solubility kinetic does the source give for `Nc1cccnc1Oc1ccc(F)cc1` here?
The solubility kinetic was 28.8 µg/mL (≈ 141 µM).

With `Cc1onc(-c2ccccc2Cl)c1C(=O)N1CCCCC1C` (stereo not drawn) as the compound, how does the solubility kinetic read?
Its solubility kinetic is 45.8 µg/mL (≈ 144 µM).

Which solubility kinetic does the source give for `O=S(=O)(Nc1ccc(F)cc1)N1CCOCC1` here?
The solubility kinetic was over 39 µg/mL.

Which solubility kinetic does the source give for `COc1ccc(-c2noc(=O)n2Cc2ccc(C#N)cc2)cc1` here?
The solubility kinetic was over 46.1 µg/mL.

With `COc1ccc(CNC(=O)c2ccc[nH]2)cc1Cl` as the compound, how does the solubility kinetic read?
The solubility kinetic was over 39.7 µg/mL.

With `COc1ccc([N+](=O)[O-])cc1NC(=O)Nc1ccc(OC)c(OC)c1` as the compound, how does the solubility kinetic read?
The solubility kinetic was 0.3 µg/mL (≈ 0.864 µM).

With `COc1ccc(/C=N/OC(=O)c2ccc(Cl)cc2)c(Cl)c1OC` as the compound, how does the solubility kinetic read?
Its solubility kinetic is under 0.8 µg/mL.

For `c1ccc(-c2noc(CC3CCCCC3)n2)nc1`, which solubility kinetic is on record?
The solubility kinetic was 32.2 µg/mL (≈ 132 µM).

Which solubility kinetic does the source give for `CCC(=O)c1ccc(OCC(=O)OCC(=O)NC2CCCCCCC2)cc1` here?
Its solubility kinetic is 48 µg/mL (≈ 128 µM).

For `COC(CNc1ncnc2sc(-c3ccccc3)cc12)OC`, which solubility kinetic is on record?
Its solubility kinetic is 35.9 µg/mL (≈ 114 µM).

Which solubility kinetic does the source give for `Cc1nnc(SC(C)C(=O)Nc2ccc(Cl)cc2Cl)[nH]c1=O` (stereo not drawn) here?
The solubility kinetic was over 53.9 µg/mL.

Which solubility kinetic does the source give for `COc1ccc(NC(=O)C#Cc2ccccc2)cc1` here?
The solubility kinetic was 5.2 µg/mL (≈ 20.7 µM).

For `CCOC1OC(=O)C(Cl)=C1Nc1ccc(C)cc1` (stereo not drawn), which solubility kinetic is on record?
Its solubility kinetic is over 40.2 µg/mL.

Which solubility kinetic does the source give for `CC(C)C(OC(=O)c1nsc(Cl)c1Cl)C(=O)NCc1ccccc1` (stereo not drawn) here?
The solubility kinetic was 10 µg/mL (≈ 25.8 µM).

With `O=C(Nc1cc(Cl)ccc1Cl)C1CCCO1` (stereo not drawn) as the compound, how does the solubility kinetic read?
The solubility kinetic was 28.9 µg/mL (≈ 111 µM).

For `O=C(NCCCl)c1ccc(OCc2ccccc2)cc1Cl`, which solubility kinetic is on record?
The solubility kinetic was 37 µg/mL (≈ 114 µM).

Which solubility kinetic does the source give for `O=c1[nH]cc(NCCc2ccccc2)c(=O)[nH]1` here?
Its solubility kinetic is over 34.7 µg/mL.

For `CCC1NC(=O)c2ccccc2N1c1cccc(Cl)c1` (stereo not drawn), which solubility kinetic is on record?
Its solubility kinetic is 29.8 µg/mL (≈ 104 µM).

Which solubility kinetic does the source give for `CCN(CC)CCNC(=O)c1ccc(N)cc1.Cl` here?
Its solubility kinetic is over 40.8 µg/mL.

For `CCCCC1C2C(=O)N(c3ccc(C)cc3)C(=O)C2ON1c1ccccc1` (stereo not drawn), which solubility kinetic is on record?
Its solubility kinetic is 46.2 µg/mL (≈ 127 µM).

Which solubility kinetic does the source give for `N/C(=N\OC(=O)C(c1ccccc1)c1ccccc1)c1ccncc1` here?
Its solubility kinetic is 47.5 µg/mL (≈ 143 µM).

With `O=C(COc1ccccc1[N+](=O)[O-])NC1CC1` as the compound, how does the solubility kinetic read?
Its solubility kinetic is 29.1 µg/mL (≈ 123 µM).

For `CCc1nc(Nc2ccc(O)cc2)c2oc3ccccc3c2n1.Cl`, which solubility kinetic is on record?
Its solubility kinetic is 1.2 µg/mL.

With `Cc1oc(S(=O)(=O)N2CCOCC2)cc1C(=O)Nc1ccc(F)cc1` as the compound, how does the solubility kinetic read?
The solubility kinetic was 5.4 µg/mL (≈ 14.7 µM).

Which solubility kinetic does the source give for `O=[N+]([O-])c1cccc(/C=N/n2cnnc2)c1` here?
The solubility kinetic was over 32.6 µg/mL.

With `CCOC(=O)C1=C(C)NC(SC)=C(C#N)C1CC(C)C` (stereo not drawn) as the compound, how does the solubility kinetic read?
Its solubility kinetic is 2.3 µg/mL (≈ 7.81 µM).

Which solubility kinetic does the source give for `COCc1cc(OC(=O)N(C)C)nc(-c2ccc(C)c(Cl)c2)n1` here?
The solubility kinetic was 0.7 µg/mL (≈ 2.08 µM).

For `COc1ccc(C=O)cc1CSc1ccccn1`, which solubility kinetic is on record?
The solubility kinetic was 38.2 µg/mL (≈ 147 µM).

For `Cc1ccc(C(=O)NCC(=O)Nc2cc(C)ccn2)cc1`, which solubility kinetic is on record?
The solubility kinetic was over 42.5 µg/mL.

For `Cc1ccc(C(=O)OCC(=O)N2C(C)CCCC2C)s1` (stereo not drawn), which solubility kinetic is on record?
The solubility kinetic was 28.2 µg/mL (≈ 95.5 µM).

Which solubility kinetic does the source give for `COc1ccc(C(=O)COC(=O)C2CCC(=O)N2)cc1` (stereo not drawn) here?
Its solubility kinetic is over 41.6 µg/mL.

With `CC1CC(Nc2ccccc2)c2ccccc2N1C(=O)c1ccco1` (stereo not drawn) as the compound, how does the solubility kinetic read?
Its solubility kinetic is 13.2 µg/mL (≈ 39.7 µM).

Which solubility kinetic does the source give for `Cc1ccccc1OCC(=O)OCC(=O)c1ccc[nH]1` here?
The solubility kinetic was over 41 µg/mL.

With `COC(=O)COc1cccc2c(=O)n(CC(=O)N3CCC(C)CC3)ccc12` as the compound, how does the solubility kinetic read?
Its solubility kinetic is over 55.9 µg/mL.

Which solubility kinetic does the source give for `CCOc1nc(C)ccc1-c1noc(-c2cccnc2)n1` here?
Its solubility kinetic is 11 µg/mL (≈ 39 µM).

For `O=[N+]([O-])c1ccc(Sc2cccc3cccnc23)c2cccnc12`, which solubility kinetic is on record?
Its solubility kinetic is under 0.2 µg/mL.

For `CCC(=O)c1ccc(OCCn2cnc3ccccc32)cc1.Cl`, which solubility kinetic is on record?
Its solubility kinetic is 43.7 µg/mL.

Which solubility kinetic does the source give for `CNCc1c(OCc2ccccc2)ccc2ccccc12.Cl` here?
Its solubility kinetic is 44.9 µg/mL.

With `S=C(c1ccc(OCc2ccccc2)cc1)N1CCCC1` as the compound, how does the solubility kinetic read?
Its solubility kinetic is under 0.6 µg/mL.

For `CC1CCCCC1NC(=O)Cn1cnc2sccc2c1=O` (stereo not drawn), which solubility kinetic is on record?
The solubility kinetic was over 45.8 µg/mL.

Which solubility kinetic does the source give for `NC(=S)Cc1ccc(Cl)cc1Cl` here?
The solubility kinetic was 30.9 µg/mL (≈ 140 µM).

With `O=C(Nc1cccnc1)c1cc(-c2ccccc2O)on1` as the compound, how does the solubility kinetic read?
Its solubility kinetic is 1.3 µg/mL (≈ 4.62 µM).

For `Cc1ccc2nc(CCc3ccc(N)cc3)[nH]c2c1.Cl`, which solubility kinetic is on record?
The solubility kinetic was over 48.6 µg/mL.

With `COC(=O)c1ccc(N=C2SCC(=O)N2C)cc1` as the compound, how does the solubility kinetic read?
Its solubility kinetic is over 39.6 µg/mL.

Which solubility kinetic does the source give for `Cc1csc(NC(=O)Cc2ccccc2Cl)n1` here?
The solubility kinetic was 34.4 µg/mL (≈ 129 µM).

For `COCCn1c(N)c(N(Cc2ccccc2)C(=O)c2cc(=O)[nH]c3ccccc23)c(=O)[nH]c1=O`, which solubility kinetic is on record?
Its solubility kinetic is over 69.2 µg/mL.

Which solubility kinetic does the source give for `CC(OC(=O)c1ccc(Cl)cc1O)C(=O)NCCC1=CCCCC1` (stereo not drawn) here?
The solubility kinetic was 32.9 µg/mL (≈ 93.5 µM).

Which solubility kinetic does the source give for `Cc1ccc(CONC(=O)c2ccccc2Cl)cc1` here?
The solubility kinetic was over 41.4 µg/mL.

Which solubility kinetic does the source give for `Cc1nc(-c2ccccc2)ccc1C(=O)O` here?
The solubility kinetic was over 32 µg/mL.

Which solubility kinetic does the source give for `CN1CCc2c(OCc3ccc(F)cc3)cccc2C1=O` here?
Its solubility kinetic is 36.8 µg/mL (≈ 129 µM).

For `O/C(=C\c1nc2ccccc2[nH]1)c1cccs1`, which solubility kinetic is on record?
Its solubility kinetic is 28.3 µg/mL (≈ 117 µM).

Which solubility kinetic does the source give for `N#C/C(=C\c1ccc(N2CCCCC2)o1)C(N)=O` here?
Its solubility kinetic is over 36.8 µg/mL.

Which solubility kinetic does the source give for `CCNCc1cc([N+](=O)[O-])ccc1OCC.Cl` here?
Its solubility kinetic is over 39.1 µg/mL.

Which solubility kinetic does the source give for `CCc1ccnc(NC(=O)NS(=O)(=O)c2ccc(C)cc2)c1` here?
The solubility kinetic was 47.6 µg/mL (≈ 149 µM).

For `O=C(CCC1CCN(Cc2ccc(Cl)cc2)CC1)NC1CC1`, which solubility kinetic is on record?
Its solubility kinetic is 41.3 µg/mL (≈ 129 µM).

Which solubility kinetic does the source give for `O=C(CCC(=O)c1cccs1)NCc1cccc(Cl)c1` here?
Its solubility kinetic is over 46.2 µg/mL.

For `O=S(=O)(NC1CCCCC1)c1cccs1`, which solubility kinetic is on record?
The solubility kinetic was 28.7 µg/mL (≈ 117 µM).

Which solubility kinetic does the source give for `O=C(CNC(=O)c1ccco1)Nc1ccc(Br)cc1` here?
The solubility kinetic was 14.1 µg/mL (≈ 43.6 µM).

With `CC(C)c1nc2oc3c(=O)[nH]cnc3c2c2c1COC(C)(C)C2` as the compound, how does the solubility kinetic read?
The solubility kinetic was over 47 µg/mL.

For `NS(=O)(=O)c1ccc(CCNC(=O)c2ccc3c(=O)n4c(nc3c2)CCCCC4)cc1`, which solubility kinetic is on record?
Its solubility kinetic is 8.2 µg/mL (≈ 18.6 µM).

Which solubility kinetic does the source give for `COc1ccc(NC(=O)C2C3CCC(O3)C2C(=O)O)c(OC)c1` (stereo not drawn) here?
Its solubility kinetic is over 48.2 µg/mL.

For `CCc1ccc(C(C)NC(=O)C2CCCC2)cc1` (stereo not drawn), which solubility kinetic is on record?
The solubility kinetic was 18.8 µg/mL (≈ 76.6 µM).

For `CSc1nc2ccc(Br)cc2[nH]1`, which solubility kinetic is on record?
The solubility kinetic was 35.7 µg/mL (≈ 147 µM).

For `CCOC(=O)c1ccc(NC(=S)NCCCn2ccnc2)cc1`, which solubility kinetic is on record?
Its solubility kinetic is over 49.9 µg/mL.

With `CCCCC(=O)NNC(=O)N1c2ccccc2Sc2ccccc21` as the compound, how does the solubility kinetic read?
Its solubility kinetic is over 51.2 µg/mL.

With `CCOC(=O)/C=C1\SCC(=O)N1CC(=O)N1CCOCC1` as the compound, how does the solubility kinetic read?
The solubility kinetic was over 47.2 µg/mL.

For `COC(=O)c1ccc(OCC(=O)NCCC2=CCCCC2)c(OC)c1`, which solubility kinetic is on record?
The solubility kinetic was over 52.1 µg/mL.

Which solubility kinetic does the source give for `CC(=O)c1cccc(NC(=O)COC(=O)C2CCCN2C(=O)c2cccs2)c1` (stereo not drawn) here?
Its solubility kinetic is 6.5 µg/mL (≈ 16.2 µM).

For `NC1=NC(=O)/C(=C/c2cccc(F)c2)S1`, which solubility kinetic is on record?
The solubility kinetic was 2.7 µg/mL (≈ 12.1 µM).

Which solubility kinetic does the source give for `Cc1ccc(C(=O)N2CCN=C2SCc2ccc([N+](=O)[O-])cc2)cc1C` here?
The solubility kinetic was 0.3 µg/mL (≈ 0.812 µM).

Which solubility kinetic does the source give for `CCN(C(=O)CSc1nc2ccc(Cl)cc2[nH]1)C1CCS(=O)(=O)C1` (stereo not drawn) here?
Its solubility kinetic is over 58.2 µg/mL.

For `Cn1c(=O)n(Cc2ccccc2Cl)c2ccccc21`, which solubility kinetic is on record?
The solubility kinetic was over 40.9 µg/mL.
